In PubChem BioAssay (NCI) one finds TGI and GI50 data, which are given here for 23 compounds.

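A five-concentration, 48-hour dose response in 96-well plates underlies each endpoint, interpolated linearly between surrounding concentrations. GI50 = concentration required for 50% inhibition of growth. TGI denotes the concentration required for complete inhibition of growth.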

Among the test systems are OVCAR-4 ovarian; UO-31 renal; KM12 colon; A549 NSCLC; HOP-92 NSCLC; HCT-116 colon; IGROV1 ovarian; LOX IMVI melanoma; T-47D breast; BT-549 breast.
What all share (experiment): growth of human tumour cells (NCI), 48 h

With `C[C@H](CCC1SC1(C)C)C1CCC2(C)C3=C(CC[C@]12C)[C@@]1(C)CC[C@H](O)C(C)(C)C1CC3` (stereo partly specified), the TGI with OVCAR-4 ovarian, with UO-31 renal, with KM12 colon, in the assay on A549 NSCLC, with HOP-92 NSCLC and in the assay with HCT-116 colon was greater than 100 µM throughout. Further, the TGI with IGROV1 ovarian and in the assay with LOX IMVI melanoma was greater than 100 µM in each case.

`O=C(Nc1ccc(S(=O)(=O)/N=c2\ncccn2C(=O)C(C(F)(F)F)C(F)(F)F)cc1)C(C(F)(F)F)C(F)(F)F`: the TGI in the assay with OVCAR-4 ovarian, in the assay with KM12 colon, with A549 NSCLC, in the assay with HCT-116 colon, in the assay on IGROV1 ovarian and in the assay with LOX IMVI melanoma was greater than 100 µM throughout. The compound also gave a TGI with T-47D breast greater than 100 µM.

In the case of `C/C(N=NS(=O)(=O)c1ccc([N+](=O)[O-])cc1)=C1\C=CC=CN1O`, the TGI with OVCAR-4 ovarian, with UO-31 renal, with KM12 colon, in the assay on A549 NSCLC, in the assay on HOP-92 NSCLC and with HCT-116 colon was greater than 100 µM in each case. For the same compound, the TGI in the assay on IGROV1 ovarian was greater than 100 µM.

For the compound `NC(=S)N1N=C2c3ccccc3CC[C@H]2[C@@H]1c1ccc(Cl)cc1`, the TGI is greater than 100 µM with OVCAR-4 ovarian; 66.8 µM with UO-31 renal; greater than 100 µM with KM12 colon; greater than 100 µM in the assay with A549 NSCLC; 58.2 µM in the assay with HOP-92 NSCLC; 37.3 µM in the assay with HCT-116 colon. Besides, the TGI in the assay with IGROV1 ovarian and in the assay with LOX IMVI melanoma was greater than 100 µM throughout.

As for `O=C(/C=C(\C(=O)c1cccs1)c1cccs1)c1ccc(C(=O)/C=C(\C(=O)c2cccs2)c2cccs2)cc1`, the TGI with OVCAR-4 ovarian, with UO-31 renal, with KM12 colon, in the assay with A549 NSCLC, in the assay with HCT-116 colon and with IGROV1 ovarian was greater than 100 µM each time. In the assay with T-47D breast, this compound returned a TGI greater than 100 µM.

Turning to `Cn1cc(C(=O)c2ccccc2)cc(C(=O)c2ccccc2)c1=O`, the TGI with OVCAR-4 ovarian, with UO-31 renal, in the assay with KM12 colon, in the assay on A549 NSCLC, with HOP-92 NSCLC and with IGROV1 ovarian was greater than 100 µM in each case. The TGI with LOX IMVI melanoma was greater than 100 µM.

As for `CC(=O)OC1[C@H](OC(C)=O)C2=C(C)[C@@H](OC(C)=O)C[C@@]2(C(C)(C)O)[C@@H](OC(C)=O)[C@H]2[C@@]1(C)[C@@H](OC(C)=O)CC(OC(C)=O)[C@]21CO1` (stereo partly specified), the TGI in the assay on OVCAR-4 ovarian, in the assay with UO-31 renal, with KM12 colon, with A549 NSCLC, with HCT-116 colon and with LOX IMVI melanoma was greater than 100 µM in each case. Also, in the assay with T-47D breast, the TGI was greater than 100 µM.

As to `O=C1CN(c2cccc(Cl)c2)C(=O)CN1NCNN1CC(=O)N(c2cccc(Cl)c2)CC1=O`, the TGI with OVCAR-4 ovarian, in the assay with UO-31 renal, in the assay on BT-549 breast, in the assay with KM12 colon, in the assay on A549 NSCLC and in the assay with HOP-92 NSCLC was greater than 100 µM throughout. In addition, the TGI in the assay on HCT-116 colon and in the assay on IGROV1 ovarian was greater than 100 µM in each case.

`CNc1ncnc2c1nc(NC1CCCC1)n2C1OC(CO)C(O)C1O` (stereo unspecified): the TGI in the assay on OVCAR-4 ovarian, with UO-31 renal, in the assay on KM12 colon, in the assay with A549 NSCLC, in the assay with HOP-92 NSCLC and with HCT-116 colon was greater than 100 µM in each case. Further, the TGI in the assay on T-47D breast was greater than 100 µM.

For the compound `C#CCN(Cc1ccc2nc(-c3ccccc3)c(N)nc2c1)c1cc(OC)c(OC)c(OC)c1`, the TGI is greater than 100 µM with OVCAR-4 ovarian; 69.3 µM in the assay on UO-31 renal; greater than 100 µM in the assay with A549 NSCLC; 57.7 µM in the assay with HCT-116 colon; greater than 100 µM with IGROV1 ovarian; 59.3 µM in the assay with LOX IMVI melanoma.

In the case of `O=c1[nH]cnc2c(COCCO)c[nH]c12`, the TGI in the assay with OVCAR-4 ovarian, with UO-31 renal, with KM12 colon, in the assay with HOP-92 NSCLC, in the assay with IGROV1 ovarian and in the assay on LOX IMVI melanoma was greater than 100 µM each time.

As to `O=C(O)c1nc2ccc(C(F)(F)F)cc2nc1Nc1ccc(F)cc1`, the TGI in the assay with OVCAR-4 ovarian is greater than 100 µM; in the assay with UO-31 renal, 24.6 µM; in the assay on BT-549 breast it was 44.2 µM; with KM12 colon it was 63 µM; in the assay with HCT-116 colon, 35 µM; in the assay on IGROV1 ovarian it was 62.6 µM. In the assay on LOX IMVI melanoma, this compound showed a TGI of 53.3 µM.

As to `Cc1nc2cc(Nc3ccccc3C(=O)O)ccc2s1`, the TGI in the assay on OVCAR-4 ovarian, with UO-31 renal, in the assay with KM12 colon, with A549 NSCLC, in the assay on HOP-92 NSCLC and in the assay on HCT-116 colon was greater than 100 µM in each case. In addition, the TGI in the assay on IGROV1 ovarian and in the assay with LOX IMVI melanoma was greater than 100 µM in each case.

As to `CCn1c2ccccc2c2c(-c3ccccc3)cc3c(c21)C(=O)N(c1ccccc1)C3=O`, the TGI with OVCAR-4 ovarian was greater than 100 µM; in the assay on UO-31 renal, greater than 100 µM; in the assay with KM12 colon, greater than 100 µM; with A549 NSCLC it was greater than 100 µM; in the assay with HOP-92 NSCLC it was 90.5 µM; in the assay on HCT-116 colon, greater than 100 µM. In addition, the TGI in the assay on IGROV1 ovarian and with LOX IMVI melanoma was greater than 100 µM each time.

With `COc1nc2ccc(COc3ccc(C(=O)O)cc3)cc2nc1OC`, the TGI in the assay with OVCAR-4 ovarian, in the assay on UO-31 renal, in the assay on KM12 colon, with A549 NSCLC, with HOP-92 NSCLC and in the assay on HCT-116 colon was greater than 100 µM in each case. Moreover, the TGI with IGROV1 ovarian, with LOX IMVI melanoma and in the assay with T-47D breast was greater than 100 µM each time.

Turning to `CCOC(=O)c1c(SC(=O)c2ccc(OC)cc2)n(-c2ccccc2)c(=S)n(-c2ccccc2)c1=O`, the TGI was greater than 100 µM in the assay with OVCAR-4 ovarian; greater than 100 µM in the assay with KM12 colon; greater than 100 µM with A549 NSCLC; greater than 100 µM in the assay on HOP-92 NSCLC; 47.9 µM with HCT-116 colon; 38 µM in the assay with IGROV1 ovarian. The TGI in the assay on LOX IMVI melanoma and in the assay on T-47D breast was greater than 100 µM throughout.

For `Cn1cc(S(=O)(=O)NC(=O)Nc2ccc(Cl)cc2)c(=O)c2ccc(F)cc21`, the TGI with OVCAR-4 ovarian, with UO-31 renal, in the assay on KM12 colon, in the assay with A549 NSCLC, in the assay on HOP-92 NSCLC and in the assay with HCT-116 colon was greater than 100 µM each time. Moreover, the TGI in the assay with IGROV1 ovarian, in the assay with LOX IMVI melanoma and in the assay with T-47D breast was greater than 100 µM throughout.

For the compound `CCCCCCCCCCCCCC[n+]1ccc(C)cc1`, the GI50 in the assay on OVCAR-4 ovarian was 0.523 µM; in the assay on UO-31 renal, 1.38 µM; in the assay on KM12 colon, 0.281 µM; with A549 NSCLC, 1.53 µM; with HOP-92 NSCLC, 0.577 µM; in the assay on HCT-116 colon, 0.403 µM. The GI50 in the assay with IGROV1 ovarian is 0.349 µM; in the assay with LOX IMVI melanoma it was 0.35 µM; in the assay with T-47D breast, 0.831 µM. Also, the TGI worked out at 2.71 µM in the assay with OVCAR-4 ovarian; 3.79 µM with UO-31 renal; 0.802 µM in the assay with KM12 colon; 2.94 µM in the assay on A549 NSCLC; 3.3 µM with HOP-92 NSCLC; 2.01 µM in the assay with HCT-116 colon. Besides, the values for the TGI with IGROV1 ovarian, in the assay on LOX IMVI melanoma and in the assay with T-47D breast were 0.953 µM, 1.36 µM and 10.6 µM, respectively.

With `COc1cc(C(C)O)c[n+](CCC2CNc3ccccc32)c1` (stereo unspecified), the TGI in the assay on OVCAR-4 ovarian, in the assay with UO-31 renal, in the assay on KM12 colon, in the assay on A549 NSCLC, in the assay with HCT-116 colon and in the assay with IGROV1 ovarian was greater than 100 µM in each case. Besides, in the assay with LOX IMVI melanoma, the TGI was greater than 100 µM.

Consider `CC1=C(C)CC2(C=C(C(C)(C)C)C(=O)C(C(C)(C)C)=C2)SC1`, for which the TGI was greater than 100 µM in the assay on OVCAR-4 ovarian; 29.7 µM in the assay on UO-31 renal; 55 µM with KM12 colon; 65.3 µM in the assay with A549 NSCLC; 47.7 µM with HOP-92 NSCLC; greater than 100 µM in the assay on HCT-116 colon. Besides, the results for the TGI with IGROV1 ovarian, in the assay on LOX IMVI melanoma and with T-47D breast were 29.4 µM, 33.1 µM and 87.3 µM, respectively.

`CC1(C)OC2OC(C(COS(=O)(=O)C(F)(F)F)N=[N+]=[N-])C(OC(=O)c3ccccc3)C2O1` (stereo unspecified): the TGI in the assay with OVCAR-4 ovarian, with UO-31 renal, in the assay on BT-549 breast, in the assay on KM12 colon, with A549 NSCLC and with HOP-92 NSCLC was greater than 100 µM throughout. Moreover, the TGI in the assay with HCT-116 colon and in the assay on LOX IMVI melanoma was greater than 100 µM each time.

For the compound `[N-]=[N+]=CC(=O)OCCCCl`, the TGI in the assay on OVCAR-4 ovarian, in the assay on UO-31 renal, in the assay with BT-549 breast, in the assay on KM12 colon, in the assay with HOP-92 NSCLC and with HCT-116 colon was greater than 100 µM each time. Besides, the TGI with IGROV1 ovarian and with LOX IMVI melanoma was greater than 100 µM in each case.

In the case of `CN(CCc1ccccn1)C(=S)N/N=C(\c1ccccc1)c1ccccn1`, the TGI turned out to be 2.23 µM in the assay with OVCAR-4 ovarian; 1.83 µM in the assay on UO-31 renal; 2.37 µM in the assay with KM12 colon; 8.42 µM with A549 NSCLC; 3.59 µM in the assay with HOP-92 NSCLC; 2.02 µM in the assay on HCT-116 colon. Further, the TGI turned out to be 1.57 µM in the assay with IGROV1 ovarian, 2.04 µM in the assay with LOX IMVI melanoma and 4.82 µM in the assay with T-47D breast.
